Assay results taken from PubChem BioAssay AID330 (DTP/NCI, 2004).
Values joined by “and” are separate entries in the source; they are usually repeats but may differ in a detail not shown here. Equal values may be shown once. Inconclusive results and toxic doses are left out.

Tested on: P388 leukemia ip, CD2F1 mice, survival T/C
Test: NCI In Vivo Anticancer Drug Screen. Data for tumor model P388 Leukemia (intraperitoneal) in CD2F1 (CDF1) mice
Conditions: endpoint: median survival time, higher = longer survival
Procedure, shortened: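 Mice carrying the transplanted tumor received test compound or vehicle. Survival was recorded in each group, and the value is the treated-group measurement divided by that of the vehicle-treated control group.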

[1] = dose: 50.0 mg/kg/injection, schedule: Q01DX005 (ip), vehicle: saline
[2] = dose: 100.0 mg/kg/injection, schedule: Q01DX005 (ip), vehicle: saline
[3] = dose: 200.0 mg/kg/injection, schedule: Q01DX005 (ip), vehicle: saline
[4] = dose: 60.0 mg/kg/injection, schedule: Q01DX005 (ip), vehicle: saline with Tween-80
[5] = dose: 120.0 mg/kg/injection, schedule: Q01DX005 (ip), vehicle: saline with Tween-80
[6] = dose: 60.0 mg/kg/injection, schedule: Q01DX005 (ip), vehicle: Klucel (hydroxypropylcellulose) (HPC)
[7] = dose: 120.0 mg/kg/injection, schedule: Q01DX005 (ip), vehicle: Klucel (hydroxypropylcellulose) (HPC)
[8] = dose: 240.0 mg/kg/injection, schedule: Q01DX005 (ip), vehicle: Klucel (hydroxypropylcellulose) (HPC)
[9] = dose: 50.0 mg/kg/injection, schedule: Q01DX005 (ip), vehicle: Klucel (hydroxypropylcellulose) (HPC)

SMILES: C/C(=N\NC(=S)N1CCN(c2ccccn2)CC1)c1cccc2cccnc12
- T/C (dose: 50.0 mg/kg/injection, schedule: Q01DX005 (ip), vehicle: saline with Tween-80): 103 % of control
- T/C (dose: 100.0 mg/kg/injection, schedule: Q01DX005 (ip), vehicle: saline with Tween-80): 106 % of control
- T/C (dose: 200.0 mg/kg/injection, schedule: Q01DX005 (ip), vehicle: saline with Tween-80): 110 % of control

SMILES: Nc1nnc2nc(C(C(=O)c3ccccc3)c3nc4nnc(N)n4[nH]c3=O)c(=O)[nH]n12
- T/C [1]: 102 % of control
- T/C [2]: 96 % of control
- T/C [3]: 97 % of control

SMILES: CCCCCC(O)/C=C/[C@H]1C(O)CC2O/C(=C\CCCC(=O)O)C[C@@H]21 (some centres not stated)
- T/C [1]: 102 % of control
- T/C [2]: 100 % of control
- T/C [3]: 95 % of control

SMILES: C=C1Cc2cc(OC)c(OC)cc2C(c2cccc(Cl)c2)=NN1C(C)=O
- T/C [4]: 95 % of control
- T/C [5]: 97 % of control
- T/C (dose: 240.0 mg/kg/injection, schedule: Q01DX005 (ip), vehicle: saline with Tween-80): 100 % of control

SMILES: CSc1nc(-c2ccccc2)c(C(=O)NC(C)CN2CCCCC2)s1 (configuration not stated)
- T/C [4]: 95 % of control
- T/C [5]: 100 % of control

SMILES: O=c1[nH]c2cc(Cl)ccc2nc1/C=C(\O)c1ccccc1
- T/C [6]: 96 % of control
- T/C [7]: 91 % of control
- T/C [8]: 92 % of control

SMILES: [CH3][Ge]1([CH3])[CH2]C(c2ccccc2)=C(c2ccccc2)[CH2]1
- T/C [6]: 99 % of control
- T/C [7]: 94 % of control
- T/C [8]: 90 % of control

SMILES: COC(=O)C12CC3CC(CC(NC(=O)C(Cc4ccccc4)NC(=O)CN)(C3)C1)C2 (configuration not stated)
- T/C (dose: 60.0 mg/kg/injection, schedule: Q01DX005 (ip), vehicle: saline): 94 % of control
- T/C (dose: 120.0 mg/kg/injection, schedule: Q01DX005 (ip), vehicle: saline): 99 % of control
- T/C (dose: 240.0 mg/kg/injection, schedule: Q01DX005 (ip), vehicle: saline): 94 % of control

SMILES: OCCCC1CCCCN1 (configuration not stated)
- T/C (dose: 50.0 mg/kg/injection, schedule: Q01DX001 (ip), vehicle: saline): 107 % of control
- T/C (dose: 200.0 mg/kg/injection, schedule: Q01DX001 (ip), vehicle: saline): 100 % of control

SMILES: Cc1ccc(N=Nc2c(O)n(-c3ccc(Br)cc3)c(=S)n(-c3ccccc3)c2=O)cc1
- T/C (dose: 100.0 mg/kg/injection, schedule: Q01DX001 (ip), vehicle: saline with Tween-80): 95 % of control
- T/C (dose: 200.0 mg/kg/injection, schedule: Q01DX001 (ip), vehicle: saline with Tween-80): 100 % of control
- T/C (dose: 400.0 mg/kg/injection, schedule: Q01DX001 (ip), vehicle: saline with Tween-80): 90 % of control

SMILES: Cc1nn(-c2ccccc2)c2c1C(c1ccc(Cl)cc1)C(C#N)=C(N)O2 (configuration not stated)
- T/C (dose: 50.0 mg/kg/injection, schedule: Q01DX009 (ip), vehicle: Klucel (hydroxypropylcellulose) (HPC)): 94 % of control
- T/C (dose: 100.0 mg/kg/injection, schedule: Q01DX009 (ip), vehicle: Klucel (hydroxypropylcellulose) (HPC)): 96 % of control

SMILES: NC(N)=NCC1CCCCCCN1 (configuration not stated)
- T/C (dose: 12.5 mg/kg/injection, schedule: Q01DX009 (ip), vehicle: saline): 106 % of control
- T/C (dose: 25.0 mg/kg/injection, schedule: Q01DX009 (ip), vehicle: saline): 100 % of control
- T/C (dose: 50.0 mg/kg/injection, schedule: Q01DX009 (ip), vehicle: saline): 104 % of control
- T/C (dose: 100.0 mg/kg/injection, schedule: Q01DX009 (ip), vehicle: saline): 104 % of control

SMILES: Clc1cccc(Cl)c1C(Nc1ncccn1)Nc1ncccn1
- T/C [9]: 106 % of control
- T/C (dose: 100.0 mg/kg/injection, schedule: Q01DX005 (ip), vehicle: Klucel (hydroxypropylcellulose) (HPC)): 100 % of control
- T/C (dose: 200.0 mg/kg/injection, schedule: Q01DX005 (ip), vehicle: Klucel (hydroxypropylcellulose) (HPC)): 97 % of control

SMILES: CC1=C(C#N)C(=O)OC1(C)C1CCCC(=O)C1 (configuration not stated)
- T/C (dose: 7.5 mg/kg/injection, schedule: Q01DX005 (ip), vehicle: saline with Tween-80): 99 % of control
- T/C (dose: 15.0 mg/kg/injection, schedule: Q01DX005 (ip), vehicle: saline with Tween-80): 100 % of control
- T/C (dose: 30.0 mg/kg/injection, schedule: Q01DX005 (ip), vehicle: saline with Tween-80): 98 % of control
- T/C [4]: 100 % of control and 107 % of control

SMILES: BrC1(Br)C2CC3C(CC21)C3(Br)Br (configuration not stated)
- T/C (dose: 37.5 mg/kg/injection, schedule: Q01DX001 (ip), vehicle: saline with Tween-80): 100 % of control
- T/C (dose: 75.0 mg/kg/injection, schedule: Q01DX001 (ip), vehicle: saline with Tween-80): 109 % of control
- T/C (dose: 150.0 mg/kg/injection, schedule: Q01DX001 (ip), vehicle: saline with Tween-80): 100 % of control

SMILES: CN1CCCCC1CC(O)c1ccccc1 (configuration not stated)
- T/C (dose: 12.5 mg/kg/injection, schedule: Q01DX005 (ip), vehicle: Klucel (hydroxypropylcellulose) (HPC)): 103 % of control
- T/C (dose: 25.0 mg/kg/injection, schedule: Q01DX005 (ip), vehicle: Klucel (hydroxypropylcellulose) (HPC)): 105 % of control
- T/C [9]: 100 % of control
